The test system of the experiment is BALB/c mouse implanted with ascitic sarcoma (S-180), CP treated. The following applies: for Hb / Platelet Count (×10^3/mcl) / RBC Count (×10^6/mcl) / WBC Difference Count (%) Lymphocytes / WBC Difference Count (%) Polymorph / WBC Total Count (×10^3/mcl): CP +: CP 150 mg/kg ip day 11, coded drug 100 mg/kg (vehicle for CP alone) po day 1-15, blood day 16; for Difference in Weight (g) from Day 1 to 16: CP +: S-180 bearing antigen-challenged mice, CP 150 mg/kg ip day 11, coded drug 100 mg/kg (vehicle for CP alone) po day 1-15; for change in body weight / change in HA antibody titers / change in HL antibody titers / change in hemoglobin content / change in platelet counts / change in red cell counts / change in white cell differential counts / change in white cell total counts: vs group IV (tumor +, CP +, vehicle), drug po day 1-15, CP 150 mg/kg ip day 11, ANOVA; for change in HA antibody titers / change in HL antibody titers / change in hemoglobin content / change in platelet counts / change in red cell counts / change in white cell differential counts / change in white cell total counts: day 16.

Where [1] appears, read: Tumor +, CP +: CP 150 mg/kg ip day 11, coded drug 100 mg/kg (vehicle for CP alone) po day 1-15, serum day 16, mean +/- SD.
[2] abbreviates: tumor-bearing CP-treated mice, vs CP alone.

`O=C1O[C@H]([C@@H](O)CO)C(O)=C1O` [Drug T, Vitamin C]: the “change in body weight” value is recorded as “no significant change”, the “change in HA antibody titers” value is reported as “significantly increased”, the “change in HL antibody titers” value was “significantly increased” and the “change in hemoglobin content” value is listed as “significantly increased”. Also, the “change in platelet counts” value is recorded as “No significant change”, the “change in red cell counts” value is “No significant change”, the “change in white cell differential counts” value is “no significant change” and the “change in white cell total counts” value is on record as “significantly increased”. Where the note is “Tumor +, mean +/- SD”, the “Hb” value came out at 15.37 ± 1.481 g/dL, the “Platelet Count (×10^3/mcl)” value is 822.67 +/− 234.142 ×10^3/mcl, the “RBC Count (×10^6/mcl)” value is on record as 4.25 +/− 0.661 ×10^6/mcl and the “WBC Difference Count (%) Lymphocytes” value is recorded as 63.30 +/− 6.266%. In addition, where the note is “Tumor +, mean +/- SD”, the “WBC Difference Count (%) Polymorph” value is given as 36.70 +/− 6.266%, the “WBC Total Count (×10^3/mcl)” value is on record as 7.13 +/− 0.949 ×10^3/mcl and the “Difference in Weight (g) from Day 1 to 16” value was -2.67 ± 1.751 g. For the same compound, under setting [1], the “CF Titre (Log2)” value is given as 5.67 +/− 0.516 Log2 and the “HA Titre (Log2)” value was 5.33 +/− 0.516 Log2. Besides, under setting [2], the “effect on CP-induced immunosuppression / immunostimulatory activity (conclusion)” value was “protective effect on CP-induced myelo and immunosuppression”; the “effect on CP-induced myelosuppression (conclusion)” value is “protective effect on CP-induced myelo and immunosuppression”; the “other activity indicated (conclusion)” value is “mild hematinic activity”.

`O=S(=O)(O)CCS` [Mesna]: the “change in body weight” value is listed as “no significant change”, the “change in HA antibody titers” value was “no significant change”, the “change in HL antibody titers” value is “no significant change” and the “change in hemoglobin content” value was “no significant change”. In addition, the “change in platelet counts” value is listed as “no significant change”, the “change in red cell counts” value is “no significant change”, the “change in white cell differential counts” value is “no significant change” and the “change in white cell total counts” value is “no significant change”. Where the note is “Tumor +, mean +/- SD”, the “Hb” value was 14.08 ± 1.689 g/dL, the “Platelet Count (×10^3/mcl)” value was 608.83 +/− 239.813 ×10^3/mcl, the “RBC Count (×10^6/mcl)” value is 4.12 +/− 0.609 ×10^6/mcl and the “WBC Difference Count (%) Lymphocytes” value was 62.42 +/− 9.902%. Also, where the note is “Tumor +, mean +/- SD”, the “WBC Difference Count (%) Polymorph” value was 37.58 +/− 9.902%, the “WBC Total Count (×10^3/mcl)” value was 3.67 +/− 1.218 ×10^3/mcl and the “Difference in Weight (g) from Day 1 to 16” value is -2.5 ± 1.049 g. Further, the “HA Titre (Log2)” value under setting [1] was 2.17 +/− 0.408 Log2. Under setting [2], the “effect on CP-induced immunosuppression / immunostimulatory activity (conclusion)” value was “no effect on body weight and CP-induced myelo and immunosuppression”; the “effect on CP-induced myelosuppression (conclusion)” value is “no effect on body weight and CP-induced myelo and immunosuppression”.
